Reference: US8173438B1, “Microbiological assessment method and device utilizing oxygen gradient sensing” (Photonic BioSystems, Inc., priority 1996, dated 2012)

Assays:
Format in all cases: cell-based
B. subtilis organisms [1] = test: Bulk-volume suspension culture antibiotic test with oxygen-sensor disk at vessel bottom; details: after 60 minutes, control 2%
Protocol: Alternatively, as a comparison of outgrowth and detection of antibiotic effects under bulk-volume assay conditions, identical aliquots of B. subtilis organisms were and mixed into 1 ml samples of TSB media prepared with and without penicillin as described above and dispensed into vessels. To measure oxygen consumption of the organisms in these bulk suspension samples, oxygen-sensor disks of the same derivation as the above integrated sensors, but without organisms applied to them, were placed in the bottom of the vessels.
(§1) All samples were prepared and cultured in parallel, incubated at 37° C. and the oxygen consumption tracked via the integrated sensors' luminescent signals, in a manner similar to that shown in FIG. 7. […] The inhibitory effect of penicillin on organisms' growth was already manifesting itself in this time frame.
By comparison, the bulk volume cultures of B. subtilis after 60 minutes were just beginning to show indications of growth but were too early into the assay to identify inhibitory effects. The control, without antibiotic present, was just 2% above baseline, which was the same signal level as the 5 ng/ml penicillin sample. The 5 ug/ml high dose registered 1% above baseline.

B. subtilis cells = test: Companion study: integrated sensor-BI, 8,000 cells collected by filtration on glass-fiber oxygen-sensor disks; details: for signal change: at about 3.5 hours (control 5% signal increase)
Protocol: A similar companion study, indicated the potential of the integrated sensor-BI to detect microbial activity and identify antibiotic sensitivity in several hours, using a small number of organisms to initiate the test. Inoculum of only 8,000 B. subtilis cells were collected by filtration, similar to Example 9, on oxygen-sensor disks made from Millipore AP-40 glass-fiber filter material (0.7 micron particle retention). In about 3.5 hours, without antibiotic present, the population expanded in the integrated biological sensor control, producing a 5% level signal increase, i.e. positive indication of outgrowth. […] After 8 hours of incubation, the low-dose penicillin exposed population eventually expanded enabling assay detection of outgrowth. No activity was identified in the sample exposed to the high dose at any point over the 20 hour assay.

B. subtilis organisms [2] = test: Integrated biological sensor disk antibiotic susceptibility test (oxygen consumption via luminescent signal), 400,000 cells per disk
Protocol: In this example, organisms were applied to the integrated biological sensor disk in order to attain rapid measures of activity within the disk's microenvironment while the disk was incubated in culture media containing the antibiotic being assayed for effects on the microbial population.
B. subtilis organisms were cultured in Trypticase Soy Broth (TSB) media to obtain an inoculum of actively growing test organisms. Twenty microliter aliquots, each containing 400,000 cells (established by subsequent plate counting), were removed, and dispensed onto 0.25 inch diameter dry oxygen-sensor disks prepared from 0.45 micron pore cellulose-ester filter membrane stock (Millipore), in a manner similar to that described in Example 7. These integrated biological sensor disks bearing organisms were placed at the bottom of sterile polypropylene vessels, to which was added 1 ml of TSB media containing penicillin at concentrations of 5 ug/ml, or 5 ng/ml, or no antibiotic in the case of the positive growth control.
as §1

penicillin
signal above baseline (B. subtilis organisms [1]; penicillin 5 ng/ml): 2% | signal above baseline (B. subtilis organisms [1]; penicillin 5 ug/ml): 1% | activity (outgrowth / oxygen consumption) (B. subtilis cells; high dose penicillin (5 ug/ml), at any point over the 20 hour assay): No activity | incubation time to assay detection of outgrowth (B. subtilis cells; low-dose penicillin (5 ng/ml), control about 3.5 hours): 8 h | signal change (B. subtilis cells; penicillin 5 ng/ml): No signal change | signal change (B. subtilis cells; penicillin 5 ug/ml): No signal change | sensitivity of the organisms to the antibiotic (B. subtilis organisms [2]; conclusion from 5 ng/ml and 5 ug/ml samples): sensitive | signal increase (luminescent oxygen sensor signal above baseline) (B. subtilis organisms [2]; penicillin 5 ng/ml, after 60 minutes of assay, 37° C., TSB media, control without penicillin 12%): 6% | metabolic activity (oxygen consumption) (B. subtilis organisms [2]; penicillin 5 ug/ml, throughout 40 hours of monitoring, 37° C.): no evidence of metabolic activity
